Assay results: ChEMBL document CHEMBL1201862, “PubChem BioAssay data set” (2004)
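Five compound concentrations were applied to cells in 96-well plates for 48 hours; endpoints were derived by simple linear interpolation of the resulting dose-response curve. GI50 marks 50% less growth.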 Activity calls are given as the source filed them. No stated cut-off is given here; in the data, active = GI50 up to about 1.1 µM and inactive = higher.

How the values were obtained:
Assay in all cases: DTP human tumour cell line panel, 48 h
A498 = test system: A498
COLO 205 = test system: COLO 205
DU-145 = test system: DU-145
HOP-62 = test system: HOP-62
Hs-578T = test system: Hs-578T
IGROV-1 = test system: IGROV-1
K562 = test system: K562
M14 = test system: M14
MCF7 = test system: MCF7
RPMI-8226 = test system: RPMI-8226
SF-268 = test system: SF-268
SF-539 = test system: SF-539
SK-MEL-28 = test system: SK-MEL-28
SK-MEL-2 = test system: SK-MEL-2
SK-MEL-5 = test system: SK-MEL-5
SN12C = test system: SN12C
T47D = test system: T47D
U-251 = test system: U-251
UACC-257 = test system: UACC-257
UACC-62 = test system: UACC-62

| Compound | GI50 (A498) | GI50 (COLO 205) | GI50 (DU-145) | GI50 (HOP-62) | GI50 (Hs-578T) | GI50 (IGROV-1) | GI50 (K562) | GI50 (M14) | GI50 (MCF7) | GI50 (RPMI-8226) | GI50 (SF-268) | GI50 (SF-539) | GI50 (SK-MEL-28) | GI50 (SK-MEL-2) | GI50 (SK-MEL-5) | GI50 (SN12C) | GI50 (T47D) | GI50 (U-251) | GI50 (UACC-257) | GI50 (UACC-62) |
| --- | --- | --- | --- | --- | --- | --- | --- | --- | --- | --- | --- | --- | --- | --- | --- | --- | --- | --- | --- | --- |
| O=C1C=C(Nc2cccnc2)c2ccccc2C1=O | 9.08 µM (inactive) | 21.6 µM (inactive) | 4.15 µM (inactive) | 4.23 µM (inactive) | 2.4 µM (inactive) | 7.73 µM (inactive) | 1.76 µM (inactive) | 1.91 µM (inactive) | 2.64 µM (inactive) | 9.04 µM (inactive) | 7.91 µM (inactive) | 2.97 µM (inactive) | 5.58 µM (inactive) | 7.23 µM (inactive) | 1.26 µM (inactive) | 8.02 µM (inactive) | 21.4 µM (inactive) | 9.25 µM (inactive) | 1.9 µM (inactive) | 1.68 µM (inactive) |
| C/C(=N/NC(=S)N1CC2CCC(CC2)C1)c1cnccn1 | 1.73 µM (inactive) | < 0.01 µM (active) | 0.376 µM (active) | < 0.01 µM (active) | 2.42 µM (inactive) | < 0.01 µM (active) | < 0.01 µM (active) | < 0.0104 µM (active) | < 0.01 µM (active) | < 0.01 µM (active) | < 0.01 µM (active) | 0.109 µM (active) | 1.64 µM (inactive) | 0.278 µM (active) | < 0.0175 µM (active) | < 0.0178 µM (active) | < 0.0461 µM (active) | < 0.01 µM (active) | < 0.01 µM (active) | < 0.023 µM (active) |
| COc1cccc(CC(C)NCC(O)c2ccc(O)c(O)c2)c1 (centres undefined) | > 100 µM (inactive) | 19 µM (inactive) | 31.9 µM (inactive) | 34.8 µM (inactive) | 57.1 µM (inactive) | 92 µM (inactive) | 94.4 µM (inactive) | 38 µM (inactive) | 41.8 µM (inactive) | 39.2 µM (inactive) | 50.5 µM (inactive) | 37.2 µM (inactive) | 52.1 µM (inactive) | > 100 µM (inactive) | 60.3 µM (inactive) | 25 µM (inactive) | 25.3 µM (inactive) | 45.6 µM (inactive) | 34.1 µM (inactive) | 37.5 µM (inactive) |
| COC1C=COC2(C)Oc3c(C)c(O)c4c(O)c(c(C5SCCS5)c(O)c4c3C2=O)NC(=O)/C(C)=C\C=CC(C)C(O)C(C)C(O)C(C)C(OC(C)=O)C1C (centres undefined) | 13.1 µM (inactive) | 2.49 µM (inactive) | 1.29 µM (inactive) | 10.9 µM (inactive) | 13.4 µM (inactive) | 7.33 µM (inactive) | 3.66 µM (inactive) | 6.19 µM (inactive) | 4.24 µM (inactive) | 2.71 µM (inactive) | 11 µM (inactive) | 8.15 µM (inactive) | 6.56 µM (inactive) | 6.43 µM (inactive) | 7.89 µM (inactive) | 2.55 µM (inactive) | 3.1 µM (inactive) | 3.95 µM (inactive) | 4.7 µM (inactive) | 6.18 µM (inactive) |
| c1ccc2c(Cc3[nH]c4ccccc4c3Cc3c[nH]c4ccccc34)c[nH]c2c1 | 2.39 µM (inactive) | 2.07 µM (inactive) | 1.8 µM (inactive) | 3.38 µM (inactive) | 1.47 µM (inactive) | 1.67 µM (inactive) | 2.33 µM (inactive) | 2.36 µM (inactive) | 11.2 µM (inactive) | 2.74 µM (inactive) | 1.23 µM (inactive) | 2.56 µM (inactive) | 6.21 µM (inactive) | 2.36 µM (inactive) | 2.17 µM (inactive) | 1.77 µM (inactive) | 2.93 µM (inactive) | 2.88 µM (inactive) | 2.71 µM (inactive) | 11 µM (inactive) |
| COc1cc2c(cc1O)NC(=O)[C@@H]1CCCN1C2=O | > 100 µM (inactive) | > 100 µM (inactive) | > 100 µM (inactive) | > 100 µM (inactive) | 24 µM (inactive) | > 100 µM (inactive) | > 100 µM (inactive) | > 100 µM (inactive) | > 100 µM (inactive) | > 100 µM (inactive) | > 100 µM (inactive) | > 100 µM (inactive) | > 100 µM (inactive) | > 100 µM (inactive) | > 100 µM (inactive) | > 100 µM (inactive) | > 100 µM (inactive) | > 100 µM (inactive) | > 100 µM (inactive) | > 100 µM (inactive) |
| O=c1cc(NNc2ccccc2)[nH]c(=S)[nH]1 | > 100 µM (inactive) | 49 µM (inactive) | 64.9 µM (inactive) | > 100 µM (inactive) | > 100 µM (inactive) | 79.4 µM (inactive) | 32.4 µM (inactive) | 36.7 µM (inactive) | 25.9 µM (inactive) | 10.5 µM (inactive) | 32.7 µM (inactive) | 50.2 µM (inactive) | 42.7 µM (inactive) | 16.6 µM (inactive) | 57 µM (inactive) | > 100 µM (inactive) | 27.1 µM (inactive) | 45 µM (inactive) | 47.6 µM (inactive) | 63.1 µM (inactive) |
| COc1ccc(C(=O)/C=C/c2ccc(OCC(=O)O)cc2)cc1 | > 100 µM (inactive) | 70.3 µM (inactive) | > 100 µM (inactive) | > 100 µM (inactive) | 70.1 µM (inactive) | > 100 µM (inactive) | 39.4 µM (inactive) | > 100 µM (inactive) | 42.8 µM (inactive) | > 100 µM (inactive) | 43.9 µM (inactive) | 46.6 µM (inactive) | 36.6 µM (inactive) | 44.5 µM (inactive) | > 100 µM (inactive) | 71.3 µM (inactive) | 38.4 µM (inactive) | 27.7 µM (inactive) | – | 52.1 µM (inactive) |
| CCN(CCCl)c1cc(CN(C)C)cc(NC(=O)c2cc(C(=O)Nc3cc(CN(C)C)cc(N(CC)CCCl)c3)n(C)n2)c1 | 2 µM (inactive) | 0.721 µM (active) | 0.389 µM (active) | 0.121 µM (active) | 0.197 µM (active) | 0.136 µM (active) | 0.124 µM (active) | 0.381 µM (active) | < 0.01 µM (active) | 0.24 µM (active) | 0.065 µM (active) | 0.338 µM (active) | 1.48 µM (inactive) | 1.55 µM (inactive) | 1.09 µM (active) | 0.3 µM (active) | 0.508 µM (active) | 0.0923 µM (active) | 1.37 µM (inactive) | 0.219 µM (active) |
| Cc1cccc(NC(=O)CC(=O)N2N=C(N3c4ccccc4Sc4ccccc43)CC2c2ccccc2)c1 (centres undefined) | > 100 µM (inactive) | > 100 µM (inactive) | > 100 µM (inactive) | > 100 µM (inactive) | > 100 µM (inactive) | > 100 µM (inactive) | > 100 µM (inactive) | > 100 µM (inactive) | > 100 µM (inactive) | > 100 µM (inactive) | > 100 µM (inactive) | > 100 µM (inactive) | > 100 µM (inactive) | > 100 µM (inactive) | > 100 µM (inactive) | > 100 µM (inactive) | > 100 µM (inactive) | > 100 µM (inactive) | > 100 µM (inactive) | > 100 µM (inactive) |
